Results from ChEMBL document CHEMBL3991601, “The target landscape of clinical kinase drugs” (Science, 2017).
Activity calls are given as the source filed them.

Legend:
[1] = molecular target: T1, Acyl-CoA dehydrogenase family member 10 (Homo sapiens, UniProt Q6JQN1)
T1 sequence (Q6JQN1 whole entry): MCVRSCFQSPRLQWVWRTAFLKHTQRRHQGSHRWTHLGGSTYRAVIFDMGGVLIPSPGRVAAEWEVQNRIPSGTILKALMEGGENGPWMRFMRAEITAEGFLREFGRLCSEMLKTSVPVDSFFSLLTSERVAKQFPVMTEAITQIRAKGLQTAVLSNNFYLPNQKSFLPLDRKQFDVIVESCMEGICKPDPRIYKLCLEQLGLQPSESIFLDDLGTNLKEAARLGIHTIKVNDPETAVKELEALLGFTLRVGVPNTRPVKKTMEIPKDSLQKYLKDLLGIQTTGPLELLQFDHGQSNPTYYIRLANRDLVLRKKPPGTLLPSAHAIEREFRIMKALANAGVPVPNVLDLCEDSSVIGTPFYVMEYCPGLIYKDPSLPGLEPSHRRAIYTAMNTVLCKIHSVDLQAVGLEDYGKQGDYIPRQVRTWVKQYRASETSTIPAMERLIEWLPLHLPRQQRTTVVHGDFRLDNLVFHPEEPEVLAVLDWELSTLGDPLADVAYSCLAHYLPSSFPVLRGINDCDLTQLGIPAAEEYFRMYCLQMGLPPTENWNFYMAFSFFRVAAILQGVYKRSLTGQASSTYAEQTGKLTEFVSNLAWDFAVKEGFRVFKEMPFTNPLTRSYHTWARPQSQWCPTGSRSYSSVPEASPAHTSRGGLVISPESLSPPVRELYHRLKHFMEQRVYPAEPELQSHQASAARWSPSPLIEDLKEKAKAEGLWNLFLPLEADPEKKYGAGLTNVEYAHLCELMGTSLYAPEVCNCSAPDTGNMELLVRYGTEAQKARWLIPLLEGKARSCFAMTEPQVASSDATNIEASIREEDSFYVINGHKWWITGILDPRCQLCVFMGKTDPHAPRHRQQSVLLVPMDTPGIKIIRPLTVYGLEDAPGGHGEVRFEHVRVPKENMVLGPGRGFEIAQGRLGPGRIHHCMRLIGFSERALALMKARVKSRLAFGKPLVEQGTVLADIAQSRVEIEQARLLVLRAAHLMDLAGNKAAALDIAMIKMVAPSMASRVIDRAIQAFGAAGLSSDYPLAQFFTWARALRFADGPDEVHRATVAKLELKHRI

[2] = molecular target: Bone morphogenetic protein receptor type-1B (Homo sapiens, UniProt O00238)
Sequence of Bone morphogenetic protein receptor type-1B (O00238 whole entry): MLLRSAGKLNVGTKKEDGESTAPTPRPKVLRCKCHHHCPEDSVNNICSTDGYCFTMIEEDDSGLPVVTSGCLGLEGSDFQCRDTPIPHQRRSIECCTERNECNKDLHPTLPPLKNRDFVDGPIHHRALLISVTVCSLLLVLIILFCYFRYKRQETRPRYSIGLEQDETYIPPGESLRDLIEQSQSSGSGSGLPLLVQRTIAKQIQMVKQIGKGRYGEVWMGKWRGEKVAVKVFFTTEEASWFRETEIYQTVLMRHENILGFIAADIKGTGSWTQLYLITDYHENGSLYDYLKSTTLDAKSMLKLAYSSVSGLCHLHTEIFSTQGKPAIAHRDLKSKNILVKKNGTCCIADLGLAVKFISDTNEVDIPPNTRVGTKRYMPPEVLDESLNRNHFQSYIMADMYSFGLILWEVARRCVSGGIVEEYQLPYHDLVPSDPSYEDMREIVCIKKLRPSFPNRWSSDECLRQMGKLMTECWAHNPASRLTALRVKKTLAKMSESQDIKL

[3] = molecular target: Insulin-like growth factor 1 receptor (Homo sapiens, UniProt P08069)
Sequence of Insulin-like growth factor 1 receptor (P08069 31-736 limits assumed): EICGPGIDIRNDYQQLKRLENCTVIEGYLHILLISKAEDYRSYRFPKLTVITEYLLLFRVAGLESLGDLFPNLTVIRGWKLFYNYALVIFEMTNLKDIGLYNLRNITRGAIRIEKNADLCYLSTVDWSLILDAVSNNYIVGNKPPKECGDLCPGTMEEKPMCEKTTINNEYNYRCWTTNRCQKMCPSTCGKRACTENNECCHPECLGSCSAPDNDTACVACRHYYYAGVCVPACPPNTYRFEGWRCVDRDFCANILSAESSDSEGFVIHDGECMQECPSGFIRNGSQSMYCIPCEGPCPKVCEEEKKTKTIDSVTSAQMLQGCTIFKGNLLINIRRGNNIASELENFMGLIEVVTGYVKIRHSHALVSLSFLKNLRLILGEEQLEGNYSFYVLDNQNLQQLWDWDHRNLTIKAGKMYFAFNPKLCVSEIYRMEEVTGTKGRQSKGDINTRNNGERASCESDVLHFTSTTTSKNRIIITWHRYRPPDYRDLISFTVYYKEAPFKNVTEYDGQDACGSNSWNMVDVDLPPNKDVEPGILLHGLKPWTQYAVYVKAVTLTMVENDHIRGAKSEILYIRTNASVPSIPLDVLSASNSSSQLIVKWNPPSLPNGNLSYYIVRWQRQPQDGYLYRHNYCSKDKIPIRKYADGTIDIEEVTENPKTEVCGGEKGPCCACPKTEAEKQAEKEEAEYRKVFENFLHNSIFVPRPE
Sequence of Insulin-like growth factor 1 receptor (P08069 741-1367 limits assumed): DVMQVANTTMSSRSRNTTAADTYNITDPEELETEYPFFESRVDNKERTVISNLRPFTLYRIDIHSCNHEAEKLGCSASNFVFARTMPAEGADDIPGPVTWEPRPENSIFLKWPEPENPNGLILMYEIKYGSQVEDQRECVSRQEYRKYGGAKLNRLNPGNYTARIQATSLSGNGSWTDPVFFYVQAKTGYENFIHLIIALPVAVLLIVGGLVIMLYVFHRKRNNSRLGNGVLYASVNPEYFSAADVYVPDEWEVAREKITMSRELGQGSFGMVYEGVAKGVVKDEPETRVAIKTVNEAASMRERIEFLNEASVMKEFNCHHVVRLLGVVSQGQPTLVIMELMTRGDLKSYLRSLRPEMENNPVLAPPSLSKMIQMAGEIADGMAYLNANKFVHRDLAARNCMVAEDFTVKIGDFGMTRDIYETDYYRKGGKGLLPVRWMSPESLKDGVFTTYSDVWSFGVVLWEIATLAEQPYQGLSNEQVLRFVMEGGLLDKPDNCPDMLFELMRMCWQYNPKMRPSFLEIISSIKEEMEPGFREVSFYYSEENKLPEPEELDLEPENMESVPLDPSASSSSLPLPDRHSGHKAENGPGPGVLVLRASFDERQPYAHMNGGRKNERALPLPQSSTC

[4] = molecular target: Mitogen-activated protein kinase 3 (Homo sapiens, UniProt P27361)
Sequence of Mitogen-activated protein kinase 3 (P27361 whole entry): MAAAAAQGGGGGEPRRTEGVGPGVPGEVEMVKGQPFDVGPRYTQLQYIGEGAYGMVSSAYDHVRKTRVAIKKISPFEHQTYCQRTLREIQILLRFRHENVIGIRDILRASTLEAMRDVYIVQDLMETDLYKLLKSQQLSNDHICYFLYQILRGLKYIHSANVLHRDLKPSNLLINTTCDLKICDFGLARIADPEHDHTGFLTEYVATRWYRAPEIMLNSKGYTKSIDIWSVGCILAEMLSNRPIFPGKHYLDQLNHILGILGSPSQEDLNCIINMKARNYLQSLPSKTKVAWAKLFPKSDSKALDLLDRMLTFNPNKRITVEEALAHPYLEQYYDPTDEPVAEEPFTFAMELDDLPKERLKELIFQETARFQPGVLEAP

[5] = molecular target: Serine/threonine-protein kinase PAK 2 (Homo sapiens, UniProt Q13177)
Sequence of Serine/threonine-protein kinase PAK 2 (Q13177 whole entry): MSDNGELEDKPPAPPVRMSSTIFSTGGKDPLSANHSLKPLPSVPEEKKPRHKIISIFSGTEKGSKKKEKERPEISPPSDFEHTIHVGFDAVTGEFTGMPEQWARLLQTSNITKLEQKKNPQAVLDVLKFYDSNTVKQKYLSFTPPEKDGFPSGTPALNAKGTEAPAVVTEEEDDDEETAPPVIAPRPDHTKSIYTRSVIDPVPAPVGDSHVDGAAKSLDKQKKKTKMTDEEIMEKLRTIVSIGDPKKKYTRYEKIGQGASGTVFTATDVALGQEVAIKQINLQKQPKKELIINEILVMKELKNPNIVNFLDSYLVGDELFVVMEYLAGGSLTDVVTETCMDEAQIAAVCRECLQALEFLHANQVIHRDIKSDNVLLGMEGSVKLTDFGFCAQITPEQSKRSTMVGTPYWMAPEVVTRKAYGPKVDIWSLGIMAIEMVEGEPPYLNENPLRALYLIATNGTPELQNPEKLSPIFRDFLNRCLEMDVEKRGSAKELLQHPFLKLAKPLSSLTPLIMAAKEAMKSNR

[6] = molecular target: Ribosomal protein S6 kinase alpha-6 (Homo sapiens, UniProt Q9UK32)
Sequence of Ribosomal protein S6 kinase alpha-6 (Q9UK32 whole entry): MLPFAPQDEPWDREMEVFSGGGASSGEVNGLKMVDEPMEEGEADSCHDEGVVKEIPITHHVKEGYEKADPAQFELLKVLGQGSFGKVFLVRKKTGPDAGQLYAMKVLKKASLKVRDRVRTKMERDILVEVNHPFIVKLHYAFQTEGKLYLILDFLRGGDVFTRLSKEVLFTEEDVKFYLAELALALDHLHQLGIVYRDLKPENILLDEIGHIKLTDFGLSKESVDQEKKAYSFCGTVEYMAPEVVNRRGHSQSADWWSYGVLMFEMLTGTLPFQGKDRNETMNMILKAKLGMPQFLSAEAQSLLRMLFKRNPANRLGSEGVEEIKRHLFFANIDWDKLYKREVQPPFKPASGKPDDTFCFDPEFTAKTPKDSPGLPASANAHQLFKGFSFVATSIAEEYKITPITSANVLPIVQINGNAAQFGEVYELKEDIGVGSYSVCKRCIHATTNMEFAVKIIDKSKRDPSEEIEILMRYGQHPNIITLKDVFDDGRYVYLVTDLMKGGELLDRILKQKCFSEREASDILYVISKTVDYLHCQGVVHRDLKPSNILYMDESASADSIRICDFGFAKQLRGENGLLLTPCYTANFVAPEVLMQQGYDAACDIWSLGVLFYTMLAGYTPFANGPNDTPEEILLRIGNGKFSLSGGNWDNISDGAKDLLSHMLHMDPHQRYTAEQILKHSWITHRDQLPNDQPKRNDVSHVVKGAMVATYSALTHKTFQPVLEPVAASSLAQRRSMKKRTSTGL

[7] = molecular target: T2, Structural maintenance of chromosomes protein 1A (Homo sapiens, UniProt Q14683)
T2 sequence (Q14683 whole entry): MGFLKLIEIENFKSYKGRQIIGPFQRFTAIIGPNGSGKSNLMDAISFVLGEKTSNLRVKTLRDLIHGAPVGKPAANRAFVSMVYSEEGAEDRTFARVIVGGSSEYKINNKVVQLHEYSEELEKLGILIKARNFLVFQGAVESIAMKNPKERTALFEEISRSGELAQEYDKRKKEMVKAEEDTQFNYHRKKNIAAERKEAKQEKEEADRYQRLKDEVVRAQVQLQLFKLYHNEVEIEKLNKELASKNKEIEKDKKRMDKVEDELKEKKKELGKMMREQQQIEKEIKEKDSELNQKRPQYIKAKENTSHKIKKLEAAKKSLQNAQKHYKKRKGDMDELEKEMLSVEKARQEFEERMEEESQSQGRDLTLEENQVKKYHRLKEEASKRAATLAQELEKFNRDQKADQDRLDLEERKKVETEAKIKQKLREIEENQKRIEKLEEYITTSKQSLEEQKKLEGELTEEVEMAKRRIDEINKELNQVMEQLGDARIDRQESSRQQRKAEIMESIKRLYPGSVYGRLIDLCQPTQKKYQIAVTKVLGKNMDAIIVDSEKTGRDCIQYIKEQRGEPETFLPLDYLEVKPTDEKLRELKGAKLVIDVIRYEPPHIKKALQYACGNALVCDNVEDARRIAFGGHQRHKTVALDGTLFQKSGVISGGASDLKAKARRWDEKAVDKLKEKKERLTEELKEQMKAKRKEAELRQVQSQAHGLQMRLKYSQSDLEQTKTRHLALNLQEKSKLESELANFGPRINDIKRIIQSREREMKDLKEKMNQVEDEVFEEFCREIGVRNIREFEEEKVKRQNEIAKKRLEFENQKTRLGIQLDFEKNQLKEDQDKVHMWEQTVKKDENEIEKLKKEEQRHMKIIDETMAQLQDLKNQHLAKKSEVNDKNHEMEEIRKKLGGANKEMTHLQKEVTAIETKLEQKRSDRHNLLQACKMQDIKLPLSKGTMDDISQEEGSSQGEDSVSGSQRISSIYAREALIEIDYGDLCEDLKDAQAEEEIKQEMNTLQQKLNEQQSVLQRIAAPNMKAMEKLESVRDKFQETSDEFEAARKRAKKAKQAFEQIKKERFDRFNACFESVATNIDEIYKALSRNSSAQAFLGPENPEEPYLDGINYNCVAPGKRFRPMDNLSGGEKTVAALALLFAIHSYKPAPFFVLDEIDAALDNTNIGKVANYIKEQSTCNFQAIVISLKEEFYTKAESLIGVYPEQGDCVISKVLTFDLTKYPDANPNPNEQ

TGF-beta receptor type-1 = molecular target: T3, TGF-beta receptor type-1 (Homo sapiens, UniProt P36897)
T3 sequence (P36897 whole entry): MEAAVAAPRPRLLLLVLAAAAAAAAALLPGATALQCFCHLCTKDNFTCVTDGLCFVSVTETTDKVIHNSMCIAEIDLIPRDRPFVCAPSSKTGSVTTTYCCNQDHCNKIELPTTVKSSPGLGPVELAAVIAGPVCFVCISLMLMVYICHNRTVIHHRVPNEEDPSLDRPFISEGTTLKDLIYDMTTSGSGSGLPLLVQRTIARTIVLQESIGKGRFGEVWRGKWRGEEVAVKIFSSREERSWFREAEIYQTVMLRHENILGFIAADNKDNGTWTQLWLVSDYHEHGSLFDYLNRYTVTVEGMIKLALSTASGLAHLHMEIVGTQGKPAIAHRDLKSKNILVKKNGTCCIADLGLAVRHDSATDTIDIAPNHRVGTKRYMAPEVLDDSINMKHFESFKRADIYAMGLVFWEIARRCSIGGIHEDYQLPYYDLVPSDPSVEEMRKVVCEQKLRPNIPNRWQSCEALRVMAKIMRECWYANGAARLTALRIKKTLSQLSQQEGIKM
Further: in the data inactive means no Kd found up to 30 µM.

Compound | Kd [1] | Kd [2] | Kd [3] | Kd [4] | Kd [5] | Kd [6] | Kd [7] | Kd (TGF-beta receptor type-1)
O=C(O)[C@]1(Cc2cccc(Nc3nccs3)n2)CC[C@@H](Oc2cccc(Cl)c2F)CC1 [MK-5108] | 2.47 µM (active) | > 30 µM (inactive) | > 30 µM (inactive) | > 30 µM (inactive) | > 30 µM (inactive) | > 30 µM (inactive) | > 30 µM (inactive) | 1.7 µM (active)
CN(C)C(=O)c1cc2cnc(Nc3ccc(N4CCNCC4)cn3)nc2n1C1CCCC1 [RIBOCICLIB] | > 30 µM (inactive) | > 30 µM (inactive) | > 30 µM (inactive) | > 30 µM (inactive) | > 30 µM (inactive) | > 30 µM (inactive) | > 30 µM (inactive) | > 30 µM (inactive)
C[C@@H]1CN(Cc2ccc(F)cc2)[C@@H](C)CN1C(=O)c1cc2c(C(=O)C(=O)N(C)C)cn(C)c2cc1Cl [TALMAPIMOD] | > 30 µM (inactive) | > 30 µM (inactive) | > 30 µM (inactive) | > 30 µM (inactive) | > 30 µM (inactive) | > 30 µM (inactive) | > 30 µM (inactive) | > 30 µM (inactive)
Cn1cc(-c2ccc3nnc(C(F)(F)c4ccc5ncccc5c4)n3n2)cn1 [JNJ-38877605] | > 30 µM (inactive) | > 30 µM (inactive) | > 30 µM (inactive) | > 30 µM (inactive) | > 30 µM (inactive) | > 30 µM (inactive) | > 30 µM (inactive) | > 30 µM (inactive)
CO[C@H]1C[C@@H]2CC[C@@H](C)[C@@](O)(O2)C(=O)C(=O)N2CCCC[C@H]2C(=O)O[C@H]([C@H](C)C[C@@H]2CC[C@@H](OCCO)[C@H](OC)C2)CC(=O)[C@H](C)/C=C(\C)[C@@H](O)[C@@H](OC)C(=O)[C@H](C)C[C@H](C)/C=C/C=C/C=C/1C [EVEROLIMUS] | > 30 µM (inactive) | > 30 µM (inactive) | > 30 µM (inactive) | > 30 µM (inactive) | > 30 µM (inactive) | > 30 µM (inactive) | > 30 µM (inactive) | > 30 µM (inactive)
CC(C)Nc1cc(-c2c[nH]c(C(=O)N[C@H](CO)c3cccc(Cl)c3)c2)c(Cl)cn1 [ULIXERTINIB] | > 30 µM (inactive) | > 30 µM (inactive) | > 30 µM (inactive) | 0.16 µM (active) | > 30 µM (inactive) | > 30 µM (inactive) | > 30 µM (inactive) | > 30 µM (inactive)
COc1cc2nccc(Oc3ccc(NC(=O)NC4CC4)c(Cl)c3)c2cc1C(N)=O [LENVATINIB] | > 30 µM (inactive) | > 30 µM (inactive) | > 30 µM (inactive) | > 30 µM (inactive) | > 30 µM (inactive) | > 30 µM (inactive) | > 30 µM (inactive) | > 30 µM (inactive)
Cc1ccc(-n2nc(C(C)(C)C)cc2NC(=O)NCc2cc(F)ccc2Oc2ccc3c(cnn3CCO)c2)cc1 [PEXMETINIB] | > 30 µM (inactive) | > 30 µM (inactive) | > 30 µM (inactive) | > 30 µM (inactive) | > 30 µM (inactive) | > 30 µM (inactive) | > 30 µM (inactive) | > 30 µM (inactive)
CC(=O)Nc1cccc(-n2c(=O)n(C3CC3)c(=O)c3c(Nc4ccc(I)cc4F)n(C)c(=O)c(C)c32)c1 [TRAMETINIB] | > 30 µM (inactive) | > 30 µM (inactive) | > 30 µM (inactive) | > 30 µM (inactive) | > 30 µM (inactive) | > 30 µM (inactive) | > 30 µM (inactive) | > 30 µM (inactive)
COC(=O)N[C@@H](C)CNc1nccc(-c2cn(C(C)C)nc2-c2cc(Cl)cc(NS(C)(=O)=O)c2F)n1 [ENCORAFENIB] | > 30 µM (inactive) | > 30 µM (inactive) | > 30 µM (inactive) | > 30 µM (inactive) | > 30 µM (inactive) | > 30 µM (inactive) | > 30 µM (inactive) | > 30 µM (inactive)
O=C(Nc1ccc(-c2ccnc(Nc3ccc(N4CCOCC4)cc3)n2)cc1)C1CCCN1 (stereo not given) [XL-019] | > 30 µM (inactive) | > 30 µM (inactive) | > 30 µM (inactive) | > 30 µM (inactive) | > 30 µM (inactive) | > 30 µM (inactive) | > 30 µM (inactive) | > 30 µM (inactive)
CCn1c(=O)c(-c2cc[nH]n2)cc2c(C)nc(N)nc21 [VOXTALISIB] | > 30 µM (inactive) | > 30 µM (inactive) | > 30 µM (inactive) | > 30 µM (inactive) | > 30 µM (inactive) | > 30 µM (inactive) | > 30 µM (inactive) | > 30 µM (inactive)
Cc1ccc(NC(=O)c2ccc(CN3CC[C@H](N(C)C)C3)c(C(F)(F)F)c2)cc1Nc1nccc(-c2cncnc2)n1 [BAFETINIB] | > 30 µM (inactive) | > 30 µM (inactive) | > 30 µM (inactive) | > 30 µM (inactive) | > 30 µM (inactive) | > 30 µM (inactive) | > 30 µM (inactive) | > 30 µM (inactive)
COc1ccc(-c2ccc3c(N4CCOC[C@@H]4C)nc(N4CCOC[C@@H]4C)nc3n2)cc1CO [AZD-8055] | > 30 µM (inactive) | > 30 µM (inactive) | > 30 µM (inactive) | > 30 µM (inactive) | > 30 µM (inactive) | > 30 µM (inactive) | > 30 µM (inactive) | > 30 µM (inactive)
N[C@@H]1CCCN(c2c(/C=C3\SC(=O)NC3=O)cccc2-c2ccccc2)C1 | > 30 µM (inactive) | > 30 µM (inactive) | > 30 µM (inactive) | > 30 µM (inactive) | > 30 µM (inactive) | > 30 µM (inactive) | > 30 µM (inactive) | > 30 µM (inactive)
